{
  "source": "patent US20030092759A1",
  "about": "“Anticonvulsant derivatives useful for the treatment of restless limb syndrome and periodic limb movement disorder” (priority 2001, published 2003)",
  "key": {"depression": {"system": "depression", "experiment": "clinical case study, concurrent depression (Example 1)", "format": "in vivo, human", "conditions": "Example 1, patient; sertraline HCl 100 mg/day added to topiramate 75 mg/day", "protocol": "(§1) Prior to treatment, within 15 minutes of falling asleep, the patient was awakened by uncontrollable jerking of their legs. […] The patient had also used lorazepam and alprazolam to treat the RLS, with some benefit.\n(§2) The patient was switched to topiramate, initially at 25 mg, with a gradual increase in dosage to 75 mg/day for treatment of the RLS. Sertraline HCl at 100 mg/day was added for the treatment of their concurrent depression. Lorazepam and alprazolam were discontinued. The RLS and depression symptoms were both reduced."}, "RLS symptoms": {"system": "RLS symptoms", "conditions": "case study report, Hargrave and Beckley 1998; cited from earlier work"}, "[1]": {"system": "restless legs syndrome (RLS)", "experiment": "clinical case studies of patients with restless legs syndrome", "format": "in vivo, human", "conditions": "for benefit of earlier treatment of the RLS: before topiramate; for benefit in controlling the RLS, earlier treatment: used in the previous 15 years", "protocol": "The ability of the compounds of formula I to treat restless legs syndrome, restless arm syndrome and associated sleep disorders is based on the results of recent clinical case studies, as described in more detail below.\nas §1, §2\nIn the previous 15 years, the patient had also used carisoprodol, chlordiazepoxide HCl, clorazepate dipotassium, meprobamate, phenobarbital, flurazepam HCl, promethazine, levodopa and carbidopa, with some benefit in controlling the RLS.\nTopiramate was started at 25 mg/day and increased gradually to 300 mg/day during a six month period.\nThe patient was a person, with diagnosed recurrent unipolar depression, post traumatic stress disorder, panic disorder, nicotine, alcohol and cannabis dependency. The patient also complained of migraine headaches and restless leg syndrome.\nThe patient was started at 25 mg HS topiramate, with dosage increased to 100 mg HS and then further increased to a final dosage of 200 mg HS. Concurrent pharmacotherapy included clonazepam at 2 mg/day, desipramine HCl at 10 mg/day, clonidine at […] b.i.d., mirtazepine at 15 mg HS, triamcinolone acetonide prn, albuterol prn, potassium at […], A to Z multivitamin 1×/day and fluticasone propionate prn."}, "[2]": {"system": "simple and complex partial seizures and secondarily generalized seizures", "conditions": "adjunctive therapy or monotherapy; cited from earlier work"}, "seizures": {"system": "seizures", "conditions": "several rodent models of epilepsy; cited from earlier work"}, "kindled epilepsy": {"system": "kindled epilepsy", "conditions": "animal model of kindled epilepsy; cited from earlier work"}, "[3]": {"experiment": "side effects reported in the clinical case studies", "format": "in vivo, human", "conditions": "Example 2, person; 5 mg/day for the RLS"}},
  "note": "Structures can show the parent of a compound that is named as a salt.",
  "data": [
    {"compound": "CN[C@H]1CC[C@@H](c2ccc(Cl)c(Cl)c2)c2ccccc21", "note": "[Sertraline HCl]", "values": [
      {"measurement": "depression symptoms", "setting": "depression", "value": "reduced"},
      {"measurement": "change of RLS symptoms associated with the drug", "setting": "RLS symptoms", "value": "increase in RLS symptoms"}
    ]},
    {"compound": "Cc1nnc2n1-c1ccc(Cl)cc1C(c1ccccc1)=NC2", "note": "[alprazolam]", "values": [
      {"measurement": "benefit of earlier treatment of the RLS", "setting": "[1]; Example 1, patient", "value": "some benefit"}
    ]},
    {"compound": "C[C@@](Cc1ccc(O)c(O)c1)(NN)C(=O)O", "note": "[carbidopa]", "values": [
      {"measurement": "benefit in controlling the RLS, earlier treatment", "setting": "[1]; Example 2, person", "value": "some benefit"}
    ]},
    {"compound": "CCCC(C)(COC(N)=O)COC(=O)NC(C)C", "note": "(stereo not shown) [carisoprodol]", "values": [
      {"measurement": "benefit in controlling the RLS, earlier treatment", "setting": "[1]; Example 2, person", "value": "some benefit"}
    ]},
    {"compound": "CNC1=Nc2ccc(Cl)cc2C(c2ccccc2)=[N+]([O-])C1", "note": "[chlordiazepoxide HCl]", "values": [
      {"measurement": "benefit in controlling the RLS, earlier treatment", "setting": "[1]; Example 2, person", "value": "some benefit"}
    ]},
    {"compound": "O=C1CN=C(c2ccccc2Cl)c2cc([N+](=O)[O-])ccc2N1", "note": "[clonazepam]", "values": [
      {"measurement": "effect on the RLS symptoms", "setting": "[1]; Example 2, person, 2-4 mg/day", "value": "very little positive effect"}
    ]},
    {"compound": "O=C(O)C1N=C(c2ccccc2)c2cc(Cl)ccc2NC1=O", "note": "(stereo not shown) [clorazepate dipotassium]", "values": [
      {"measurement": "benefit in controlling the RLS, earlier treatment", "setting": "[1]; Example 2, person", "value": "some benefit"}
    ]},
    {"compound": "CCN(CC)CCN1C(=O)CN=C(c2ccccc2F)c2cc(Cl)ccc21", "note": "[flurazepam HCl]", "values": [
      {"measurement": "benefit in controlling the RLS, earlier treatment", "setting": "[1]; Example 2, person", "value": "some benefit"}
    ]},
    {"compound": "N[C@@H](Cc1ccc(O)c(O)c1)C(=O)O", "note": "[levodopa]", "values": [
      {"measurement": "benefit in controlling the RLS, earlier treatment", "setting": "[1]; Example 2, person", "value": "some benefit"}
    ]},
    {"compound": "O=C1Nc2ccc(Cl)cc2C(c2ccccc2Cl)=NC1O", "note": "(stereo not shown) [lorazepam]", "values": [
      {"measurement": "benefit of earlier treatment of the RLS", "setting": "[1]; Example 1, patient", "value": "some benefit"}
    ]},
    {"compound": "CCCC(C)(COC(N)=O)COC(N)=O", "note": "[meprobamate]", "values": [
      {"measurement": "benefit in controlling the RLS, earlier treatment", "setting": "[1]; Example 2, person", "value": "some benefit"}
    ]},
    {"compound": "CC(CN1c2ccccc2Sc2ccccc21)N(C)C", "note": "(stereo not shown) [promethazine]", "values": [
      {"measurement": "benefit in controlling the RLS, earlier treatment", "setting": "[1]; Example 2, person", "value": "some benefit"}
    ]},
    {"compound": "CC1(C)O[C@@H]2[C@@H](CO[C@@]3(COS(N)(=O)=O)OC(C)(C)O[C@@H]23)O1", "note": "[topiramate, 2,3:4,5-bis-O-(1-methylethylidene)-β-D-fructopyranose sulfamate]", "values": [
      {"measurement": "RLS symptoms", "setting": "[1]; Example 1, patient, topiramate 25 mg increased to 75 mg/day, with sertraline HCl 100 mg/day, lorazepam and alprazolam discontinued", "value": "reduced"},
      {"measurement": "restless legs syndrome symptoms, patient report", "setting": "[1]; Example 2, person, 25 mg/day increased to 300 mg/day during six months", "value": "successfully reduced"},
      {"measurement": "effectiveness for RLS compared with carisoprodol, patient report", "setting": "[1]; Example 3, person", "value": "more effective than carisoprodol"},
      {"measurement": "effectiveness for RLS of topiramate and clonazepam in combination, patient report", "setting": "[1]; Example 3, person, the two drugs in combination", "value": "more effective than either drug alone"},
      {"measurement": "effectiveness for restless leg syndrome compared with clonazepam 6 mg HS, patient report", "setting": "[1]; Example 3, person, topiramate 100 mg HS", "value": "as effective as clonazepam 6 mg HS"},
      {"measurement": "efficacy in treating seizures in clinical trials", "setting": "[2]", "value": "effective"},
      {"measurement": "block of seizures", "setting": "seizures", "value": "effectively block seizures"},
      {"measurement": "block of seizures", "setting": "kindled epilepsy", "value": "effectively block seizures"}
    ]},
    {"compound": "OC(CCN1CCCCC1)(c1ccccc1)C1CCCCC1", "note": "(stereo not shown) [trixenryphenidyl]", "values": [
      {"measurement": "side effects", "setting": "[3]", "value": "dry mouth, blurred vision and amnesia"}
    ]}
  ]
}
